The target of experiment [1] is T1, human GPR40 (Homo sapiens, UniProt O14842).
T1 construct: expressed in transfected cells; host or cells: CHO cells stably transfected with GPR40 and Aequorin
The experiment can be described thus: Cell-based aequorin assay. To be noted: CHO cells stably transfected with GPR40 and aequorin; 0.01% HSA. On the procedure:
Cell-based aequorin assays were employed to characterize the modulatory activity of compounds on the GPR40 signaling pathway. In an exemplary assay, CHO cells were stably transfected with both GPR40 and Aequorin (Euroscreen). Cells were detached from the tissue culture dish with 2 mL of trypsin (0.25% (w/v)). Trypsinization was halted with 28 mL of Hanks Buffered Salt Solution containing 20 mM Hepes (H/HBSS) and 0.01% fatty acid-free human serum albumin (HSA). Coelantrazine is added to 1 ug/mL, and the cells were incubated for 2 hours at room temperature. Compounds were dissolved in DMSO for preparation of 10 mM stock solutions. Compounds were diluted in H/HBSS containing 0.01% HSA. Serial dilutions of the test compounds were prepared to determine dose response.
Aequorin luminescence measurements were made using an EG&G Berthold 96-well luminometer, and the response was measured over a 20 second interval after cells and compounds were mixed. The maximum relative light units was plotted to determine dose response. The EC50 (effective concentration to reach 50% maximal response) was determined from the dose response plot.

In experiment [2] the target is T1, human GPR40. The experiment can be described thus: Inositol phosphate accumulation assay. In kind it is cell-based. Conditions: A9 cell line stably transfected with GPR40; 1 hour at 37° C.; read-out: IP3 EC50. On the procedure: An A9 cell line stably transfected with GPR40 (A9_GPR40) was used in IP accumulation assays. A9_GPR40 cells were plated in 96-well plates containing 20,000 cells/well in DMEM containing 10% FBS. After the cells attached to the well surface, the media was replaced with inositol free DMEM containing 10% dialyzed FBS and 1 μCi, mL ^3H-inositol and incubated for 16 hours. Compounds were diluted in HBSS/10 mM LiCl containing a desired amount of HSA and added directly to cells. Following 1 hour incubation at 37° C., the media was replaced with 100 μL of 20 mM formic acid to quench the reaction. 50 μL of the extract was then added to 100 μL of SPA beads, incubated overnight, and measured on a TopCount the following day.

The results in this text go back to patent US8748462B2, “Spirocyclic GPR40 modulators” (Amgen Inc., priority 2008, dated 2014).

T1 sequence (O14842 whole entry): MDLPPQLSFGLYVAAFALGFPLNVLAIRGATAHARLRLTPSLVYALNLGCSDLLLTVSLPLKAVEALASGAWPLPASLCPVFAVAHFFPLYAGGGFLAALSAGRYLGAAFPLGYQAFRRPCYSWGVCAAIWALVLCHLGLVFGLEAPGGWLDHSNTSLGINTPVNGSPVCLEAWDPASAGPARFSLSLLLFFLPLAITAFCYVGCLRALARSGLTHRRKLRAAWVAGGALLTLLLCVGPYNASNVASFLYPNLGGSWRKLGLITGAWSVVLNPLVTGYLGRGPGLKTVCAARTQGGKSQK

Turning to `COc1cc(-c2ccc(COc3ccc4c(c3)[C@]3(CCC4)C[C@H]3C(=O)O)cc2[C@H](OC)C(C)(C)C)c(Cl)cn1` (racemic) [Example 139], the EC50 at human GPR40 [1] is 0.1 to 1 µM; on human GPR40 [2] it was below 0.01 µM.
On to `COc1ccc(F)c(-c2ccc(COc3ccc4c(c3)[C@]3(CC4)C[C@H]3C(=O)O)cc2[C@@H]2CCCC2(C)C)c1` (single isomer, unassigned) [Example 9], for which the results for the EC50 at human GPR40 [1] and on human GPR40 [2] were 0.1 to 1 µM and 0.01 to 0.1 µM, respectively.
Consider `COc1ccc(F)c(-c2ccc(COc3ccc4c(c3)[C@]3(CC4)C[C@H]3C(=O)O)cc2[C@H]2CCCC2(C)C)c1` (single isomer, unassigned) [Example 11], for which the EC50 at human GPR40 [1] is 0.01 to 0.1 µM; on human GPR40 [2], below 0.01 µM.
On the same counts, the results for `COc1ccc(F)c(-c2ccc(COc3ccc4c(c3)[C@]3(CC4)C[C@H]3C(=O)O)cc2[C@@H](OC)C(C)(C)C)c1` (single isomer, unassigned) [Example 12] are 0.01 to 0.1 µM and below 0.01 µM.
On the same counts, the results for `COc1ccc(F)c(-c2cc(F)c(COc3ccc4c(c3)[C@]3(CC4)C[C@H]3C(=O)O)cc2[C@H]2CCCC2(C)C)c1` (single isomer, unassigned) [Example 14] are 0.1 to 1 µM and below 0.01 µM.
Consider `COc1ccc(F)c(-c2ccc(COc3ccc4c(c3)[C@]3(CC4)C[C@H]3C(=O)O)cc2[C@H]2CCCCC2(C)C)c1` (single isomer, unassigned) [Example 15], for which the EC50 at human GPR40 [1] was 0.01 to 0.1 µM; on human GPR40 [2] it was below 0.01 µM.
As for `COc1ccc(F)c(-c2c(F)cc(COc3ccc4c(c3)[C@]3(CC4)C[C@H]3C(=O)O)cc2[C@H]2CCCC2(C)C)c1` (single isomer, unassigned) [Example 16], the values for the EC50 at human GPR40 [1] and on human GPR40 [2] were 0.01 to 0.1 µM and below 0.01 µM, respectively.
Consider `COc1cc(-c2cc(F)c(COc3ccc4c(c3)[C@]3(CC4)C[C@H]3C(=O)O)cc2[C@@H]2CCCC2(C)C)c(F)cn1` (single isomer, unassigned) [Example 17], for which the figures for the EC50 on human GPR40 [1] and on human GPR40 [2] were 0.01 to 0.1 µM and below 0.01 µM, respectively.
`COc1ccc(F)c(-c2c(F)cc(COc3ccc4c(c3)[C@]3(CC4)C[C@H]3C(=O)O)cc2[C@@H]2CCCC2(C)C)c1` (single isomer, unassigned) [Example 18]: the EC50 at human GPR40 [1] is 0.1 to 1 µM; at human GPR40 [2] it was below 0.01 µM.
As to `COc1cc(-c2ccc(COc3ccc4c(c3)[C@]3(CC4)C[C@H]3C(=O)O)cc2[C@@H](OC)C(C)(C)C)c(F)cn1` (single isomer, unassigned) [Example 28], the EC50 is 0.1 to 1 µM at human GPR40 [1] and below 0.01 µM on human GPR40 [2].
On the same counts, the results for `COc1cc(-c2ccc(COc3ccc4c(c3F)[C@]3(CC4)C[C@H]3C(=O)O)cc2[C@@H](OC)C(C)(C)C)c(F)cn1` (single isomer, unassigned) [Example 30] are 0.01 to 0.1 µM and below 0.01 µM.
The matching figures for `COc1ccc(F)c(-c2ccc(COc3ccc4c(c3F)[C@]3(CC4)C[C@H]3C(=O)O)cc2[C@@H](OC)C(C)(C)C)c1` (single isomer, unassigned) [Example 31]: 0.01 to 0.1 µM and below 0.01 µM.
The matching figures for `COc1cc(-c2ccc(COc3ccc4c(c3F)[C@]3(CC4)C[C@H]3C(=O)O)cc2[C@@H]2CCCC2(C)C)c(F)cn1` (single isomer, unassigned) [Example 32]: 0.1 to 1 µM and below 0.01 µM.
With `COc1ccc(F)c(-c2ccc(COc3cc(F)c4c(c3F)[C@]3(CC4)C[C@H]3C(=O)O)cc2[C@H]2CCCC2(C)C)c1` (single isomer, unassigned) [Example 33], the EC50 at human GPR40 [1] is 0.1 to 1 µM; at human GPR40 [2], below 0.01 µM.
On the same counts, the results for `COc1cc(-c2ccc(COc3cc(F)c4c(c3F)[C@]3(CC4)C[C@H]3C(=O)O)cc2[C@@H]2CCCC2(C)C)c(F)cn1` (single isomer, unassigned) [Example 41, (1R,2R)-6′-(3-((R)-2,2-dimethylcyclopentyl)-4-(5-fluoro-2-methoxypyridin-4-yl)benzyloxy)-4′,7′-difluoro-2′,3′-dihydrospiro[cyclopropane-1,1′-indene]-2-carboxylic acid or (1S,2S)-6′-(3-((R)-2,2-dimethylcyclopentyl)-4-(5-fluoro-2-methoxypyridin-4-yl)benzyloxy)-4′,7′-difluoro-2′,3′-dihydrospiro[cyclopropane-1,1′-indene]-2-carboxylic acid] are 0.1 to 1 µM and below 0.01 µM.
For the compound `COc1cc(-c2ccc(COc3ccc4c(c3)[C@]3(CCC4)C[C@H]3C(=O)O)cc2[C@@H](OC)C(C)(C)C)c(F)cn1` (single isomer, unassigned) [Example 44], the results for the EC50 on human GPR40 [1] and at human GPR40 [2] were 0.01 to 0.1 µM and below 0.01 µM, respectively.
The matching figures for `COc1ccc(F)c(-c2cc(F)c(COc3ccc4c(c3)[C@]3(CCC4)C[C@H]3C(=O)O)cc2[C@H]2CCCC2(C)C)c1` (single isomer, unassigned) [Example 45]: 0.1 to 1 µM and below 0.01 µM.
In the case of `COc1ccc(F)c(-c2ccc(COc3ccc4c(c3)[C@]3(CCC4)C[C@H]3C(=O)O)cc2[C@@H](OC)C(C)(C)C)c1` (single isomer, unassigned) [Example 46], the EC50 was 0.01 to 0.1 µM on human GPR40 [1] and below 0.01 µM at human GPR40 [2].
Take `COc1ccc(F)c(-c2ccc(COc3ccc4c(c3)[C@]3(CCC4)C[C@H]3C(=O)O)cc2[C@H]2CCCC2(C)C)c1` (single isomer, unassigned) [Example 47]: the results for the EC50 on human GPR40 [1] and on human GPR40 [2] were 0.01 to 0.1 µM and below 0.01 µM, respectively.
On the same counts, the results for `COc1ccc(F)c(-c2ccc(COc3ccc4c(c3F)[C@]3(CCC4)C[C@H]3C(=O)O)cc2[C@H]2CCCC2(C)C)c1` (single isomer, unassigned) [Example 51] are 0.01 to 0.1 µM and below 0.01 µM.
On the same counts, the results for `COc1ccc(F)c(-c2ccc(COc3ccc4c(c3F)[C@@]3(CCC4)C[C@@H]3C(=O)O)cc2[C@H]2CCCC2(C)C)c1` (single isomer, unassigned) [Example 52] are above 10 µM and 1 to 10 µM.
`COc1cc(-c2ccc(COc3ccc4c(c3F)[C@]3(CCC4)C[C@H]3C(=O)O)cc2[C@@H](OC)C(C)(C)C)c(F)cn1` (single isomer, unassigned) [Example 53]: the EC50 is 0.01 to 0.1 µM at human GPR40 [1] and below 0.01 µM on human GPR40 [2].
With `COc1ccc(F)c(-c2ccc(COc3ccc4c(c3F)[C@]3(CCC4)C[C@H]3C(=O)O)cc2[C@@H](OC)C(C)(C)C)c1` (single isomer, unassigned) [Example 54], the EC50 at human GPR40 [1] is 0.01 to 0.1 µM; at human GPR40 [2], below 0.01 µM.
As to `COc1ccc(F)c(-c2cc(F)c(COc3ccc4c(c3F)[C@]3(CCC4)C[C@H]3C(=O)O)cc2[C@H]2CCCC2(C)C)c1` (single isomer, unassigned) [Example 56], the figures for the EC50 at human GPR40 [1] and at human GPR40 [2] were 0.1 to 1 µM and below 0.01 µM, respectively.
With `COc1cc(-c2cc(F)c(COc3ccc4c(c3F)[C@]3(CCC4)C[C@H]3C(=O)O)cc2[C@H]2CCCC2(C)C)c(F)cn1` (single isomer, unassigned) [Example 57], the EC50 is 0.1 to 1 µM at human GPR40 [1] and below 0.01 µM on human GPR40 [2].
Consider `COc1cc(-c2ccc(COc3cc4c(cn3)CC[C@]43C[C@H]3C(=O)O)cc2[C@@H](OC)C(C)(C)C)c(F)cn1` (single isomer, unassigned) [Example 58, (2′R,5R)-3-({4-(5-Fluoro-2-methoxypyridin-4-yl)-3-1[(1S)-1-methoxy-2,2-dimethylpropyl]phenyl}methoxy)-6,7-dihydrospiro[cyclopenta[c]pyridine-5,1′-cyclopropane]-2′-carboxylic acid or (2′R,5R)-3-({4-(5-fluoro-2-methoxypyridin-4-yl)-3-[(1R)-1-methoxy-2,2-dimethylpropyl]phenyl}methoxy)-6,7-dihydrospiro[cyclopenta[c]pyridine-5,1′-cyclopropane]-2′-carboxylic acid], for which the EC50 on human GPR40 [1] is 0.1 to 1 µM; at human GPR40 [2] it was below 0.01 µM.
`COc1cc(-c2ccc(COc3cc4c(cn3)CC[C@@]43C[C@@H]3C(=O)O)cc2[C@@H](OC)C(C)(C)C)c(F)cn1` (single isomer, unassigned) [Example 59, (2′S,5S)-3-({4-(5-Fluoro-2-methoxypyridin-4-yl)-3-[(1S)-1-methoxy-2,2-dimethylpropyl]phenyl}methoxy)-6,7-dihydrospiro[cyclopenta[c]pyridine-5,1′-cyclopropane]-2′-carboxylic acid or (2′S,5S)-3-({4-(5-fluoro-2-methoxypyridin-4-yl)-3-[(1R)-1-methoxy-2,2-dimethylpropyl]phenyl}methoxy)-6,7-dihydrospiro[cyclopenta[c]pyridine-5,1′-cyclopropane]-2′-carboxylic acid]: the EC50 on human GPR40 [1] and on human GPR40 [2] was 0.1 to 1 µM in each case.

As usually defined, the EC50 is the concentration needed to bring the measured effect to its halfway point.
